Experimental data from PubChem BioAssay (NCI).
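Each compound was tested at five concentrations against cells in 96-well plates for 48 hours. The concentration for full growth arrest is given as TGI.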

Assays:
Test in all cases: NCI anticancer screen, dose series, 48 h
786-0 renal = system: 786-0 renal
A498 renal = system: A498 renal
A549 NSCLC = system: A549 NSCLC
ACHN renal = system: ACHN renal
CAKI-1 renal = system: CAKI-1 renal
CCRF-CEM leukemia = system: CCRF-CEM leukemia
COLO 205 colon = system: COLO 205 colon
DU-145 prostate = system: DU-145 prostate
EKVX NSCLC = system: EKVX NSCLC
HCC-2998 colon = system: HCC-2998 colon
HCT-15 colon = system: HCT-15 colon
HL-60(TB) leukemia = system: HL-60(TB) leukemia
HOP-62 NSCLC = system: HOP-62 NSCLC
HOP-92 NSCLC = system: HOP-92 NSCLC
HS 578T breast = system: HS 578T breast
HT29 colon = system: HT29 colon
IGROV1 ovarian = system: IGROV1 ovarian
K-562 leukemia = system: K-562 leukemia
KM12 colon = system: KM12 colon
LOX IMVI melanoma = system: LOX IMVI melanoma
M14 melanoma = system: M14 melanoma
MALME-3M melanoma = system: MALME-3M melanoma
MCF7 breast = system: MCF7 breast
MDA-MB-231 breast = system: MDA-MB-231 breast
MDA-MB-435 = system: MDA-MB-435
MDA-N = system: MDA-N
MOLT-4 leukemia = system: MOLT-4 leukemia
NCI-H226 lung = system: NCI-H226 lung
NCI-H23 lung = system: NCI-H23 lung
NCI-H460 lung = system: NCI-H460 lung
NCI-H522 lung = system: NCI-H522 lung
NCI/ADR-RES ovarian = system: NCI/ADR-RES ovarian
OVCAR-3 ovarian = system: OVCAR-3 ovarian
OVCAR-4 ovarian = system: OVCAR-4 ovarian
OVCAR-5 ovarian = system: OVCAR-5 ovarian
OVCAR-8 ovarian = system: OVCAR-8 ovarian
PC-3 prostate = system: PC-3 prostate
RPMI-8226 leukemia = system: RPMI-8226 leukemia
RXF 393 renal = system: RXF 393 renal
SF-268 CNS = system: SF-268 CNS
SF-295 CNS = system: SF-295 CNS
SF-539 CNS = system: SF-539 CNS
SK-MEL-2 melanoma = system: SK-MEL-2 melanoma
SK-MEL-28 melanoma = system: SK-MEL-28 melanoma
SK-MEL-5 melanoma = system: SK-MEL-5 melanoma
SK-OV-3 ovarian = system: SK-OV-3 ovarian
SNB-19 CNS = system: SNB-19 CNS
SNB-75 CNS = system: SNB-75 CNS
SR leukemia = system: SR leukemia
SW-620 colon = system: SW-620 colon
T-47D breast = system: T-47D breast
TK-10 renal = system: TK-10 renal
U251 CNS = system: U251 CNS
UACC-257 melanoma = system: UACC-257 melanoma
UACC-62 melanoma = system: UACC-62 melanoma
UO-31 renal = system: UO-31 renal
HCT-116 colon = system: HCT-116 colon
SN12C renal = system: SN12C renal

O[C@@]1(C#Cc2ccc3c(c2)OCO3)CCC[C@H]1NCc1ccccc1
TGI (786-0 renal): 31.3 µM | TGI (A498 renal): 92.5 µM | TGI (A549 NSCLC): > 100 µM | TGI (ACHN renal): > 100 µM | TGI (CAKI-1 renal): > 100 µM | TGI (CCRF-CEM leukemia): 99.7 µM | TGI (COLO 205 colon): 37.4 µM | TGI (DU-145 prostate): > 100 µM | TGI (EKVX NSCLC): > 100 µM | TGI (HCC-2998 colon): 32.2 µM | TGI (HCT-15 colon): 47.3 µM | TGI (HL-60(TB) leukemia): 39.1 µM | TGI (HOP-62 NSCLC): 78.2 µM | TGI (HOP-92 NSCLC): 38 µM | TGI (HS 578T breast): 50.8 µM | TGI (HT29 colon): 44.9 µM | TGI (IGROV1 ovarian): 46.9 µM | TGI (K-562 leukemia): 41.5 µM | TGI (KM12 colon): 42.7 µM | TGI (LOX IMVI melanoma): 30.9 µM | TGI (M14 melanoma): 29.2 µM | TGI (MALME-3M melanoma): 29.6 µM | TGI (MCF7 breast): 55.3 µM | TGI (MDA-MB-231 breast): > 100 µM | TGI (MDA-MB-435): 50.2 µM | TGI (MDA-N): 32.5 µM | TGI (MOLT-4 leukemia): 45.1 µM | TGI (NCI-H226 lung): 51.2 µM | TGI (NCI-H23 lung): > 100 µM | TGI (NCI-H460 lung): 69 µM | TGI (NCI-H522 lung): 29.8 µM | TGI (NCI/ADR-RES ovarian): 40.6 µM | TGI (OVCAR-3 ovarian): 47.4 µM | TGI (OVCAR-4 ovarian): > 100 µM | TGI (OVCAR-5 ovarian): > 100 µM | TGI (OVCAR-8 ovarian): 59 µM | TGI (PC-3 prostate): 51.3 µM | TGI (RPMI-8226 leukemia): 56 µM | TGI (RXF 393 renal): 86.2 µM | TGI (SF-268 CNS): > 100 µM | TGI (SF-295 CNS): 40.3 µM | TGI (SF-539 CNS): 39.5 µM | TGI (SK-MEL-2 melanoma): 31.9 µM | TGI (SK-MEL-28 melanoma): 38.1 µM | TGI (SK-MEL-5 melanoma): 36.2 µM | TGI (SK-OV-3 ovarian): > 100 µM | TGI (SNB-19 CNS): 68.4 µM | TGI (SNB-75 CNS): 89.8 µM | TGI (SR leukemia): 50.7 µM | TGI (SW-620 colon): > 100 µM | TGI (T-47D breast): 41.2 µM | TGI (TK-10 renal): 70.6 µM | TGI (U251 CNS): 59.6 µM | TGI (UACC-257 melanoma): 63.9 µM | TGI (UACC-62 melanoma): 36.4 µM | TGI (UO-31 renal): 43.9 µM

CC1(C)CC[C@]2(C(=O)O)CC[C@]3(C)C(=CCC4=C5C[C@H](O)[C@H](O)[C@@](C)(CO)[C@@]5(C)CC[C@]43C)[C@@H]2C1
TGI (786-0 renal): > 100 µM | TGI (A498 renal): > 100 µM | TGI (A549 NSCLC): > 100 µM | TGI (ACHN renal): > 100 µM | TGI (CAKI-1 renal): 87.2 µM | TGI (CCRF-CEM leukemia): > 100 µM | TGI (COLO 205 colon): 30 µM | TGI (DU-145 prostate): > 100 µM | TGI (EKVX NSCLC): > 100 µM | TGI (HCC-2998 colon): 64.1 µM | TGI (HCT-116 colon): > 100 µM | TGI (HCT-15 colon): > 100 µM | TGI (HL-60(TB) leukemia): > 100 µM | TGI (HOP-62 NSCLC): > 100 µM | TGI (HOP-92 NSCLC): > 100 µM | TGI (HS 578T breast): > 100 µM | TGI (HT29 colon): > 100 µM | TGI (IGROV1 ovarian): > 100 µM | TGI (K-562 leukemia): > 100 µM | TGI (KM12 colon): > 100 µM | TGI (LOX IMVI melanoma): > 100 µM | TGI (M14 melanoma): > 100 µM | TGI (MALME-3M melanoma): > 100 µM | TGI (MCF7 breast): > 100 µM | TGI (MDA-MB-231 breast): > 100 µM | TGI (MDA-MB-435): > 100 µM | TGI (MDA-N): > 100 µM | TGI (MOLT-4 leukemia): > 100 µM | TGI (NCI-H23 lung): > 100 µM | TGI (NCI-H460 lung): 81.8 µM | TGI (NCI-H522 lung): > 100 µM | TGI (NCI/ADR-RES ovarian): > 100 µM | TGI (OVCAR-3 ovarian): > 100 µM | TGI (OVCAR-4 ovarian): 71.4 µM | TGI (OVCAR-5 ovarian): > 100 µM | TGI (OVCAR-8 ovarian): > 100 µM | TGI (PC-3 prostate): > 100 µM | TGI (RPMI-8226 leukemia): > 100 µM | TGI (SF-268 CNS): > 100 µM | TGI (SF-295 CNS): > 100 µM | TGI (SF-539 CNS): > 100 µM | TGI (SK-MEL-2 melanoma): > 100 µM | TGI (SK-MEL-28 melanoma): > 100 µM | TGI (SK-MEL-5 melanoma): 62.8 µM | TGI (SK-OV-3 ovarian): > 100 µM | TGI (SN12C renal): > 100 µM | TGI (SNB-19 CNS): > 100 µM | TGI (SNB-75 CNS): 83.8 µM | TGI (SR leukemia): > 100 µM | TGI (SW-620 colon): > 100 µM | TGI (T-47D breast): 89.5 µM | TGI (TK-10 renal): > 100 µM | TGI (U251 CNS): > 100 µM | TGI (UACC-257 melanoma): > 100 µM | TGI (UACC-62 melanoma): > 100 µM | TGI (UO-31 renal): > 100 µM
